Experimental data reported in PubChem BioAssay AID270 (DTP/NCI, 2004).
Several values for one entry are separate records, joined by “and”; a condition that tells them apart may be missing. Identical values can stand only once. Records with an inconclusive call do not appear. *1 amine or outer side, *2 acyl side, *3 side chain or, on linkers, in order; H or OH if unused. Where a SMILES comes first, the peptide text is derived from it. Bridges are numbered along the chain shown (N, C = ends). [ ]: non-standard residue; d: D form. The star is where a group is joined. X2 = CC(C)C(C)C(C(=O)[*:2])N(C)[*:1]; Picolinoyl(3-OH) = O=C(c1ncccc1O)*; NMePhg = CN[CH](C(=O)O)c1ccccc1; Hyp = O=C(O)[CH]1C[CH](O)CN1; Sar = CNCC(=O)O

System: BDF1 mice, s.c. Lewis lung carcinoma, T/C %
Experiment: NCI In Vivo Anticancer Drug Screen. Data for tumor model Lewis Lung Carcinoma (subcutaneous) in B6D2F1 (BDF1) mice
Procedure, shortened: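 Tumor-bearing mice were treated with test compound, and either survival or tumor size was recorded. Values are the treated-group measurement divided by that of the vehicle-treated control group.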

[1] = endpoint: median survival time, dose: 4.0 mg/kg/injection, schedule: Q01DX009 (ip), vehicle: Klucel (hydroxypropylcellulose) (HPC), higher = longer survival

SMILES: Cc1cc(C)c(NC(=O)N(CCCl)N=O)cc1C
- T/C (endpoint: mean tumor weight, dose: 25.0 mg/kg/injection, schedule: Q01DX001 (ip), vehicle: carboxymethylcellulose (CMC), higher = larger tumour): 80 % of control
- T/C (endpoint: mean tumor weight, dose: 50.0 mg/kg/injection, schedule: Q01DX001 (ip), vehicle: carboxymethylcellulose (CMC), higher = larger tumour): 82 % of control
- T/C (endpoint: median survival time, dose: 12.5 mg/kg/injection, schedule: Q01DX009 (ip), vehicle: other, higher = longer survival): 98 % of control
- T/C (endpoint: median survival time, dose: 25.0 mg/kg/injection, schedule: Q01DX009 (ip), vehicle: other, higher = longer survival): 98 % of control
- T/C (endpoint: median survival time, dose: 50.0 mg/kg/injection, schedule: Q01DX009 (ip), vehicle: other, higher = longer survival): 87 % of control

SMILES: O=NN(CCCl)C(=O)Nc1cccc(O)c1
- T/C (endpoint: median survival time, dose: 25.0 mg/kg/injection, schedule: Q01DX009 (ip), vehicle: Klucel (hydroxypropylcellulose) (HPC), higher = longer survival): 116 % of control

SMILES: CC(C)CC1NC(=O)C(NC(=O)c2ncccc2O)C(C)OC(=O)C(c2ccccc2)N(C)C(=O)C(C)NC(=O)C(C(C)C(C)C)N(C)C(=O)CN(C)C(=O)C2CC(O)CN2C1=O (configuration not stated) ({Picolinoyl(3-OH)}-TL[Hyp][Sar][X2]A[NMePhg]; ester 1-C; configuration not given here)
- T/C (endpoint: mean tumor weight, dose: 5.3 mg/kg/injection, schedule: Q01DX011 (ip), vehicle: saline, higher = larger tumour): 90 % of control
- T/C (endpoint: mean tumor weight, dose: 8.0 mg/kg/injection, schedule: Q01DX011 (ip), vehicle: saline, higher = larger tumour): 86 % of control
- T/C (endpoint: mean tumor weight, dose: 12.0 mg/kg/injection, schedule: Q01DX011 (ip), vehicle: saline, higher = larger tumour): 88 % of control
- T/C (endpoint: mean tumor weight, dose: 18.0 mg/kg/injection, schedule: Q01DX011 (ip), vehicle: saline, higher = larger tumour): 122 % of control

SMILES: O=NN(CCCl)C(=O)Nc1ccc2[nH]c3ccccc3c2c1
- T/C [1]: 119 % of control
- T/C (endpoint: median survival time, dose: 8.12 mg/kg/injection, schedule: Q01DX009 (ip), vehicle: Klucel (hydroxypropylcellulose) (HPC), higher = longer survival): 110 % of control
- T/C (endpoint: median survival time, dose: 32.5 mg/kg/injection, schedule: Q01DX009 (ip), vehicle: Klucel (hydroxypropylcellulose) (HPC), higher = longer survival): 97 % of control

SMILES: CCN(CC)CCCC(C)Nc1c2ccc(Cl)cc2nc2ccc(OC)cc12 (configuration not stated)
- T/C (endpoint: median survival time, dose: 8.0 mg/kg/injection, schedule: Q01DX009 (ip), vehicle: saline, higher = longer survival): 103 % of control
- T/C (endpoint: median survival time, dose: 8.0 mg/kg/injection, schedule: Q01DX009 (ip), vehicle: suspension in saline, higher = longer survival): 95 % of control
- T/C (endpoint: median survival time, dose: 16.0 mg/kg/injection, schedule: Q01DX009 (ip), vehicle: saline, higher = longer survival): 101 % of control
- T/C (endpoint: median survival time, dose: 16.0 mg/kg/injection, schedule: Q01DX009 (ip), vehicle: suspension in saline, higher = longer survival): 113 % of control
- T/C (endpoint: median survival time, dose: 32.0 mg/kg/injection, schedule: Q01DX009 (ip), vehicle: saline with Tween-80, higher = longer survival): 163 % of control
- T/C (endpoint: median survival time, dose: 32.0 mg/kg/injection, schedule: Q01DX009 (ip), vehicle: suspension in saline, higher = longer survival): 104 % of control
- T/C (endpoint: median survival time, dose: 64.0 mg/kg/injection, schedule: Q01DX009 (ip), vehicle: saline with Tween-80, higher = longer survival): 112 % of control
- T/C (endpoint: median survival time, dose: 64.0 mg/kg/injection, schedule: Q01DX009 (ip), vehicle: saline, higher = longer survival): 101 % of control
- T/C (endpoint: median survival time, dose: 64.0 mg/kg/injection, schedule: Q01DX009 (ip), vehicle: suspension in saline, higher = longer survival): 105 % of control

SMILES: Nc1nc2[nH]c(=O)cnc2c(=O)[nH]1
- T/C (endpoint: median survival time, dose: 12.5 mg/kg/injection, schedule: Q01DX009 (ip), vehicle: saline with Tween-80, higher = longer survival): 97 % of control
- T/C (endpoint: median survival time, dose: 50.0 mg/kg/injection, schedule: Q01DX009 (ip), vehicle: saline with Tween-80, higher = longer survival): 99 % of control
- T/C (endpoint: median survival time, dose: 100.0 mg/kg/injection, schedule: Q01DX009 (ip), vehicle: saline, higher = longer survival): 104 % of control
- T/C (endpoint: median survival time, dose: 200.0 mg/kg/injection, schedule: Q01DX009 (ip), vehicle: saline, higher = longer survival): 104 % of control
- T/C (endpoint: median survival time, dose: 400.0 mg/kg/injection, schedule: Q01DX009 (ip), vehicle: saline, higher = longer survival): 110 % of control

SMILES: Nc1nncs1
- T/C (endpoint: median survival time, dose: 6.25 mg/kg/injection, schedule: Q01DX009 (ip), vehicle: Klucel (hydroxypropylcellulose) (HPC), higher = longer survival): 117 % of control and 122 % of control

SMILES: O=C1CC(c2ccc(OCN(CCCl)CCCl)cc2)CC(=O)C1CN(CCCl)CCCl (configuration not stated)
- T/C (endpoint: median survival time, dose: 0.5 mg/kg/injection, schedule: Q01DX009 (ip), vehicle: Klucel (hydroxypropylcellulose) (HPC), higher = longer survival): 101 % of control
- T/C (endpoint: median survival time, dose: 1.0 mg/kg/injection, schedule: Q01DX009 (ip), vehicle: Klucel (hydroxypropylcellulose) (HPC), higher = longer survival): 123 % of control
- T/C (endpoint: median survival time, dose: 2.0 mg/kg/injection, schedule: Q01DX009 (ip), vehicle: Klucel (hydroxypropylcellulose) (HPC), higher = longer survival): 116 % of control
- T/C [1]: 123 % of control
- T/C (endpoint: median survival time, dose: 8.0 mg/kg/injection, schedule: Q01DX009 (ip), vehicle: Klucel (hydroxypropylcellulose) (HPC), higher = longer survival): 115 % of control

SMILES: CCCCC[C@H](O)/C=C/[C@H]1[C@H](O)CC(=O)[C@@H]1C/C=C\CCCC(=O)O
- T/C (endpoint: median survival time, dose: 50.0 mg/kg/injection, schedule: Q04DX002 (ip), vehicle: saline with Tween-80, higher = longer survival): 95 % of control

SMILES: C=COCC(C)C (tested in a mixture with another compound)
- T/C (endpoint: median survival time, dose: 1.25 mg/kg/injection, schedule: Q01DX009 (ip), vehicle: other, higher = longer survival): 101 % of control
- T/C (endpoint: median survival time, dose: 2.5 mg/kg/injection, schedule: Q01DX009 (ip), vehicle: other, higher = longer survival): 110 % of control
- T/C (endpoint: median survival time, dose: 5.0 mg/kg/injection, schedule: Q01DX009 (ip), vehicle: other, higher = longer survival): 107 % of control
